# Reference: patent US20220089631A1, “COMPOUND COMPRISING MULTIVALENT SIALYLOLIGO[…], AND COMPOSITION FOR PREVENTING OR TREATING VIRAL INFECTION DISEASES, CONTAINING SAME AS ACTIVE INGREDIENT” (priority 2018, published 2022)
# Tests used:
# Format in all cases: cell-based, influenza virus
# [1] = system: Influenza Type A H9N2 (avian)
# Influenza Type B = system: Influenza Type B
# [2] = system: Influenza Type A H1N1 (PR8)
# [3] = system: Influenza Type A H3N2 (swine)
SMILES,Hemagglutination inhibition concentration [1] [mM],Hemagglutination inhibition concentration (Influenza Type B) [mM],Hemagglutination inhibition concentration [2] [mM],Hemagglutination inhibition concentration [3] [mM]
"CC(=O)N[C@H]1[C@H]([C@H](O)[C@H](O)CO)O[C@@](O[C@H]2[C@@H](O)[C@@H](CO)O[C@@H](O[C@H]3[C@H](O)[C@@H](O)C(O)O[C@@H]3CO)[C@@H]2O)(C(=O)O)C[C@@H]1O (stereo partly drawn) [compound 1, 3′-sialyl lactose]",18,10,25,20
"CC(=O)N[C@H]1[C@H]([C@H](O)[C@H](O)CO)O[C@@](OC[C@H]2O[C@@H](O[C@H]3[C@H](O)[C@@H](O)[C@H](O)O[C@@H]3CO)[C@H](O)[C@@H](O)[C@H]2O)(C(=O)O)C[C@@H]1O [compound 2, 6′-sialyl lactose]",>100,4.5,12.5,4.5
CC(=O)NC1C(O)CC(OCC2CC(O)C(O)C(OC3C(CO)OC(OCCCCCCNC(=O)CCC(=O)OC4OC(COC(=O)CCC(=O)NCCCCCCOC5OC(O)C(OC6OC(COC7(C(=O)O)CC(O)C(NC(C)=O)C([C@@H](O)[C@H](O)CO)O7)CC(O)C6O)C(O)C5O)C(OC(=O)CCC(=O)NCCCCCCOC5OC(CO)C(OC6OC(COC7(C(=O)O)CC(O)C(NC(C)=O)C(C(O)[C@H](O)CO)O7)CC(O)C6O)C(O)C5O)C4OC(=O)CCC(=O)NCCCCCCOC4OC(CO)C(OC5OC(COC6(C(=O)O)CC(O)C(NC(C)=O)C([C@@H](O)[C@H](O)CO)O6)C(O)C(O)C5O)C(O)C4O)C(O)C3O)O2)(C(=O)O)OC1C(O)[C@H](O)CO (stereo partly drawn) [Compound 4],2.0,0.15,0.45,0.85
